Data on three compounds can be found in US10328075B2, “Method of treatment and compounds for use therein” (Baker Heart and Diabetes Institute, priority 2015, dated 2019).

This assay has as its system neonatal rat ventricular cardiomyocyte. Description: Hypoxia-reoxygenation (simulated I-R) injury in neonatal rat cardiomyocytes, LDH and cTnI release. The class given is cell-based. The note with it: 1 μM. As to the method: Isolation of primary neonatal rat ventricular cardiomyocyte: All materials used for cardiomyocyte isolation were of tissue culture grade. Cardiomyocyte isolation was performed by serial enzymatic digestions, as previously described (Irvine, J C et al, AJP, 2013). Cardiomyocyte were suspended in sterile DMEM, supplemented with 100 U/mL penicillin, 100 μg/mL streptomycin, and 10% FCS. The myocyte-rich cell suspension was preplated twice (45 min at 37° C.) to reduce fibroblast contamination. Cardiomycte was then plated onto 12-well plates at 0.5×10^6 for lactate dehydrogenase (LDH) assay in the presence of 1% 5-bromo-2′-deoxyuridine (BrdU, to limit proliferation of any remaining fibroblasts).
Simulated ischaemic-reperfusion in neonatal rat cardiomyocytes: The medium for cardiomyocytes was changed to serum-free low glucose DMEM after at least 48 h after isolation. […] Agonists were dissolved in DMEM or Krebs' buffer and were present for the full duration of hypoxia and reoxygenation. At the end of 48 h reoxygenation, culture supernatant aliquots was collected on ice and stored at −80° C. for assessment of cardiomyocyte injury. Samples were thawed on ice, and cell injury assessment determined via the level of LDH released into the supernatant, using the Cyto-Tox-One™ Homogeneous Membrane Integrity Assay as per manufacture's instruction (Promega Inc, Dane Country, Wis., USA). To confirm the extent of cardiomyocyte injury, levels of cTn in the supernatant were also evaluated, using a commercially available high-sensitivity rat cTnI ELISA kit (Life Diagnostic Inc, West Chester, Pa., USA) as per manufacturer's instructions.
Isolation and culture of primary rat cardiomyocytes and mouse cardiac fibroblasts: All materials used for cell isolation were of tissue culture grade. Isolation of primary neonatal rat cardiac cardiomyocytes (NRCM) and adult mouse cardiac fibroblasts (AMCF) was performed by serial enzymatic digestion, as previously described (Irvine et al 2012 & Irvine et al. 3) NRCM were plated onto either 12-well tissue culture plates (for simulated ischemia-reperfusion, via hypoxia-reoxygenation, H-R) or 60 mm tissue culture dishes (for gene expression) at a density of 1.3×10^5 cells/cm^2, in the presence of 1% 5-bromo-2′-deoxyuridine. AMCF (passage #3) were seeded onto 60 mm tissue culture dishes at 9.5×10^4 cells/cm^2 and allowed to grow to 80% confluence prior to study. Following 48 h in serum-free DMEM, NRCM in 12-well tissue plates were subjected to simulated ischemia, induced by replacement of culture media with sterile-filtered Kreb's buffer (118 mM NaCl, 4.8 mM KCl, 1.2 mM KH2PO4, 1.2 mM MgSO4, 25 mM NaHCO3, […], 11.0 mM glucose, 1.75 mM CaCl2) prior to incubation for 6 h at 37° C. under hypoxia (95% N2-5% CO2, using a hypoxia chamber, QNA International, Melbourne, Australia). At the end of hypoxia, Kreb's buffer was replaced with fresh, sterile-filtered Kreb's buffer, in the presence or absence of FPR agonists Cmpd17b, Cmpd43 (both 1 μM or vehicle, and NRCM were subjected to 48 h reoxygenation at 37° C. At the end of 48 h reoxygenation, NRCM supernatant was collected for assessment of cardiomyocyte injury. Cardiomyocyte release of cTnI was determined using a commercially available, high-sensitivity rat cTnI ELISA kit (Life Diagnostic Inc.) as per the manufacturer's instructions. Separate NRVM on 60 mm dishes were incubated for 48 h at 37° C. in serum-free DMEM, in the presence or absence of FPR agonists Cmpd17b, Cmpd43 (both 1 μM) or vehicle. At the end of 48 h, RNA was extracted and real-time PCR performed (as described previously (Huynh et al. 2012)), to determine the relative gene expression of rat Fprs (rFpr1, rFpr2 and rFpr3, expressed as the threshold cycle number Ct subtracted from the maximum cycle number utilized, 40).
Cardiomyocytes injury responses in vitro: Neonatal rat cardiomyocytes and adult mouse cardiofibroblasts were isolated and cultured as described (online Supplement). […]

Setting [1] is: present only during reoxygenation.
Where [2] appears, read: present for the full duration of 6 h hypoxia and 48 h reoxygenation.

No end group written: not given here.

Turning to `COc1cccc(Cc2cc(C)nn(C(C)C(=O)Nc3ccc(Br)cc3)c2=O)c1` (stereo not shown) [BIDI-001, N-(4-bromophenyl)-2-[5-(3-methoxybenzyl)-3-methyl-6-oxo-6H-pyridazin-1-yl]-propionamide], the “Cardiomyocyte cTnI release after hypoxia-reoxygenation” value (“Cardiomyocyte cTnI release” for short) under setting [1] was “significantly reduced” and the “Cardiomyocyte cTnI release” value (present only during reoxygenation, listed as Cmpd17b) is “rescued”.
`CC(C)C1C(NC(=O)Nc2ccc(Cl)cc2)C(=O)N(c2ccccc2)N1C` (stereo not shown) [BIDI-002]: the “Cardiomyocyte cTnI release” value under setting [1] is “significantly reduced”.
“Ac2-26: Annexin-A1 N-terminal peptide, peptide ANX-A1 mimetic (Ac-AMVSEFLKQAWFIENEEQEYVQTVK; UniProt P04083 2-26, looked up, fragment)”: the “Cardiomyocyte LDH release after hypoxia-reoxygenation” value is, setting by setting: under setting [2], “significantly reduced”; under setting [1], “non-significant trend”. For the same compound, the “Cardiomyocyte cTnI release” value runs as follows: under setting [2], “significantly reduced”; under setting [1], “significantly attenuated”.
